Test results taken from ChEMBL document CHEMBL1909046, “DrugMatrix in vitro pharmacology data”.

What was measured:
[1] = target: T1, Alpha-1B adrenergic receptor (Rattus norvegicus, UniProt P15823); test: DRUGMATRIX: Alpha-1B adrenergic receptor radioligand binding (ligand: prazosin); format: cell membranes, Wistar, Liver, Membrane; conditions: Not Active = under 50% inhibition at 10 µM
T1 sequence (P15823 whole entry): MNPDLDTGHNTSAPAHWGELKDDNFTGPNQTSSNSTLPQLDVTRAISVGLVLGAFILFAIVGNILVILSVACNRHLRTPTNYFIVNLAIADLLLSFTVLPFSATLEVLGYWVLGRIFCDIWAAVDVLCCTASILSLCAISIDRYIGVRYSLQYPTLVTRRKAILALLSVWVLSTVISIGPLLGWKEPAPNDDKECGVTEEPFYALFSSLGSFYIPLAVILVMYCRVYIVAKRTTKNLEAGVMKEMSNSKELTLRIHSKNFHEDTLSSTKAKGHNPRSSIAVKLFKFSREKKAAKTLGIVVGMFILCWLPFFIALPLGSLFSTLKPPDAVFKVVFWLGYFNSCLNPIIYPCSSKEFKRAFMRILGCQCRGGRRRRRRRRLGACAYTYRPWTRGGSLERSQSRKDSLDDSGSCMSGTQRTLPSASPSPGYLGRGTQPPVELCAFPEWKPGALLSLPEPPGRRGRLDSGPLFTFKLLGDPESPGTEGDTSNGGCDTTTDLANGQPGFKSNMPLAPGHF

[2] = target: Beta-3 adrenergic receptor (Homo sapiens, UniProt P13945); test: DRUGMATRIX: Adrenergic beta3 radioligand binding (ligand: [125I] Cyanopindolol); format: cell membranes, Membrane; conditions: hek293; Not Active = under 50% inhibition at 10 µM
[3] = DRUGMATRIX: Atrial Natriuretic Factor (ANF) radioligand binding (ligand: [125I] ANF (rat)); format: cell membranes, Cavia porcellus, Dunkin-Hartley, Adrenal gland, Membrane; conditions: Not Active = under 50% inhibition at 10 µM
[4] = DRUGMATRIX: Calcium Channel Type L, Phenylalkylamine radioligand binding (ligand: [3H] (-)-Desmethoxyverapamil (D-888)); format: cell membranes, Rattus norvegicus, Wistar, Brain, Membrane; conditions: Not Active = under 50% inhibition at 10 µM
[5] = target: T2, C-X-C chemokine receptor type 1 (Homo sapiens, UniProt P25024); note: in other assays of this panel Not Active means under 50% inhibition at 10 µM
T2 sequence (P25024 whole entry): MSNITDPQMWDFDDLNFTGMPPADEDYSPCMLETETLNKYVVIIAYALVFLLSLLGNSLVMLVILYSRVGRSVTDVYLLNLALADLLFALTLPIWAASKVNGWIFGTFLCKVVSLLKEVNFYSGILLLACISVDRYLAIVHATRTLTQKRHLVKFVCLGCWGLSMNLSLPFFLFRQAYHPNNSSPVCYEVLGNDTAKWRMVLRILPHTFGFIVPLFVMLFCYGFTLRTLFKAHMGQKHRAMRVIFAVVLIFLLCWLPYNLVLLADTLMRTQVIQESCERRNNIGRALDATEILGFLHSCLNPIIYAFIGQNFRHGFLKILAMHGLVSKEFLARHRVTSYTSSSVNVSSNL

[6] = DRUGMATRIX: Imidazoline I2, Central radioligand binding (ligand: [3H] Idazoxan); format: cell membranes, Rattus norvegicus, Wistar, Cerebral cortex, Membrane; conditions: Not Active = under 50% inhibition at 10 µM
Nitric oxide synthase 1 = Nitric oxide synthase 1 (Rattus norvegicus, UniProt P29476); format: tissue-based, Cerebellum; note: in other assays of this panel Not Active means under 50% inhibition at 10 µM
[7] = DRUGMATRIX: Phorbol Ester radioligand binding (ligand: [3H] PDBu); format: cell membranes, Mus musculus, ICR, Brain, Membrane; conditions: Not Active = under 50% inhibition at 10 µM
Cathepsin G = target: T3, Cathepsin G (Homo sapiens, UniProt P08311); format: tissue-based; conditions: neutrophil;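 note: inhibition of Cathepsin G enzyme activity, tested on an AMC-conjugated peptide substrate; in other assays of this panel Not Active means under 50% inhibition at 10 µM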
T3 sequence (P08311 whole entry): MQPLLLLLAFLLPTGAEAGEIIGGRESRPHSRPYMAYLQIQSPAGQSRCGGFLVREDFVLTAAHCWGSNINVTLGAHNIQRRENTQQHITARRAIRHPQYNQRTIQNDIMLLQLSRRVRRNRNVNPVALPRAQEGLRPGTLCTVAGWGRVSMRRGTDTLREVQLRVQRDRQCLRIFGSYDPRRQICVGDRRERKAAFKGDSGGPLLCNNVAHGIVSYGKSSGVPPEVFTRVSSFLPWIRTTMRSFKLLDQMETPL

Chain of Nitric oxide synthase 1 (P29476 whole entry): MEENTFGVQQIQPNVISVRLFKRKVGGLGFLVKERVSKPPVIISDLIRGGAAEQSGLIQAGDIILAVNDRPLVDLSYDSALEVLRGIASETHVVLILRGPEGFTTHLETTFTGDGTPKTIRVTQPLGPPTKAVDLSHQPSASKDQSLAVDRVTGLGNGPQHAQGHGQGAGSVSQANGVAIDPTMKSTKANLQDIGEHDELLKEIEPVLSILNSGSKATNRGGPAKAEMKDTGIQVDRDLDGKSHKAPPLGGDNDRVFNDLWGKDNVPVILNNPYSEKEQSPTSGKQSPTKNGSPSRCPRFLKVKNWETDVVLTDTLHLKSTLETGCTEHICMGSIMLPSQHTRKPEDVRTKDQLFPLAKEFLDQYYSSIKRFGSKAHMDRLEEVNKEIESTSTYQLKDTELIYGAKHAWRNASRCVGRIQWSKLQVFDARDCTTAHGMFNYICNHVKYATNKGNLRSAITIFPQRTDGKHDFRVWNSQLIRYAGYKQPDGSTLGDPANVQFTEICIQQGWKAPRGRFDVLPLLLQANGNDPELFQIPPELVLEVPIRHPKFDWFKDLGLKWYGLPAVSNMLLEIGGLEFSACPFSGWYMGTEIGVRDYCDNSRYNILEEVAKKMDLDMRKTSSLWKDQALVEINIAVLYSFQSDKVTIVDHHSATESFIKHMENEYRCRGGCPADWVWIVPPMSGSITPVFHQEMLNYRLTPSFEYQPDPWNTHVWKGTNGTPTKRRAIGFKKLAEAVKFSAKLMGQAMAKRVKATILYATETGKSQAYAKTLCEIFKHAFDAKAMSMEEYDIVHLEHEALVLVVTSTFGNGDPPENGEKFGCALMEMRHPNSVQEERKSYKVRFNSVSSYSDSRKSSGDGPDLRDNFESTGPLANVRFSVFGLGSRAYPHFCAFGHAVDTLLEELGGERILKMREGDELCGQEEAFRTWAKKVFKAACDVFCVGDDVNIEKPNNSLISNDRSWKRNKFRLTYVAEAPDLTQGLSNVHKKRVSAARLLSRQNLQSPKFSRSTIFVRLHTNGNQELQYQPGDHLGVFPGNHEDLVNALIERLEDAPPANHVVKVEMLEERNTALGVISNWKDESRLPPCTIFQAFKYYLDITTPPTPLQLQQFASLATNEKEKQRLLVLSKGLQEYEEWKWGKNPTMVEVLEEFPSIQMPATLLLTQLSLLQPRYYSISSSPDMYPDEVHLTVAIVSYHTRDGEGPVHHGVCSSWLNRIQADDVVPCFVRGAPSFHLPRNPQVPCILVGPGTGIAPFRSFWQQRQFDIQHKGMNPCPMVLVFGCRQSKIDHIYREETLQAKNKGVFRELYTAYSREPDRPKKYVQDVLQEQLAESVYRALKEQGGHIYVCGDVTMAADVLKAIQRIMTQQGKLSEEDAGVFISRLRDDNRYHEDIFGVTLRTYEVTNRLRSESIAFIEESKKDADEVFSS
Chain of Beta-3 adrenergic receptor (P13945 whole entry): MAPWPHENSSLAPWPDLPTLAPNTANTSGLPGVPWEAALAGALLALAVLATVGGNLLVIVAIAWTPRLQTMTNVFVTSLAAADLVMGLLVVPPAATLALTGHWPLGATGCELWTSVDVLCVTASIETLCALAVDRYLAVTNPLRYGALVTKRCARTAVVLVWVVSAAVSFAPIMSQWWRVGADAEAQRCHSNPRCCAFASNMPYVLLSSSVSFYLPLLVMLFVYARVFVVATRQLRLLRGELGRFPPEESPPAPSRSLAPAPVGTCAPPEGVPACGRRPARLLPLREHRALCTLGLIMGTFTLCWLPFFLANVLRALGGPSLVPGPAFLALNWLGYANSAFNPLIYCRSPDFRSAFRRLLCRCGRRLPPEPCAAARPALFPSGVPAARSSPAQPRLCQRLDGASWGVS

CN1C(=O)COc2c(C(=O)NC3CN4CCC3CC4)cc(Cl)cc21 (centres undefined) [AZASETRON]
Not Active: IC50 [1] | IC50 [2] | IC50 [3] | Ki [3] | IC50 [4] | Ki [4] | IC50 [5] | IC50 [6] | Ki [6] | IC50 (Nitric oxide synthase 1) | IC50 [7] | Ki [7] | IC50 (Cathepsin G)

C[C@H]1C[C@H]2[C@@H]3CCC4=CC(=O)C=C[C@]4(C)[C@@]3(Cl)[C@@H](O)C[C@]2(C)[C@@]1(O)C(=O)CO [BECLOMETHASONE]
Not Active: IC50 [1] | IC50 [2] | IC50 [3] | Ki [3] | IC50 [4] | Ki [4] | IC50 [5] | IC50 [6] | Ki [6] | IC50 (Nitric oxide synthase 1) | IC50 [7] | Ki [7] | IC50 (Cathepsin G)

CCOC(=O)[C@H](CCc1ccccc1)N[C@H]1CCc2ccccc2N(CC(=O)O)C1=O [BENAZEPRIL]
Not Active: IC50 [1] | IC50 [2] | IC50 [3] | Ki [3] | IC50 [4] | Ki [4] | IC50 [5] | IC50 [6] | Ki [6] | IC50 (Nitric oxide synthase 1) | IC50 [7] | Ki [7] | IC50 (Cathepsin G)

Nc1c(CC(=O)O)cccc1C(=O)c1ccc(Br)cc1 [BROMFENAC]
Not Active: IC50 [1] | IC50 [2] | IC50 [3] | Ki [3] | IC50 [4] | Ki [4] | IC50 [5] | IC50 [6] | Ki [6] | IC50 (Nitric oxide synthase 1) | IC50 [7] | Ki [7] | IC50 (Cathepsin G)

CCCCN1CCCCC1C(=O)Nc1c(C)cccc1C.Cl (centres undefined) [BUPIVACAINE HYDROCHLORIDE]
Not Active: IC50 [1] | IC50 [2] | IC50 [3] | Ki [3] | IC50 [4] | Ki [4] | IC50 [5] | IC50 [6] | Ki [6] | IC50 (Nitric oxide synthase 1) | IC50 [7] | Ki [7] | IC50 (Cathepsin G)

O=C1CC2(CCCC2)CC(=O)N1CCCCN1CCN(c2ncccn2)CC1 [BUSPIRONE]
Not Active: IC50 [1] | IC50 [2] | IC50 [3] | Ki [3] | IC50 [4] | Ki [4] | IC50 [5] | IC50 [6] | Ki [6] | IC50 (Nitric oxide synthase 1) | IC50 [7] | Ki [7] | IC50 (Cathepsin G)

C[C@@]12C(=O)OC(=O)[C@]1(C)[C@H]1CC[C@@H]2O1 [CANTHARIDIN]
Not Active: IC50 [1] | IC50 [2] | IC50 [3] | Ki [3] | IC50 [4] | Ki [4] | IC50 [5] | IC50 [6] | Ki [6] | IC50 (Nitric oxide synthase 1) | IC50 [7] | Ki [7] | IC50 (Cathepsin G)

O=NN(CCCl)C(=O)NCCCl [CARMUSTINE]
Not Active: IC50 [1] | IC50 [2] | IC50 [3] | Ki [3] | IC50 [4] | Ki [4] | IC50 [5] | IC50 [6] | Ki [6] | IC50 (Nitric oxide synthase 1) | IC50 [7] | Ki [7] | IC50 (Cathepsin G)

CC1=C(C(=O)O)N2C(=O)[C@@H](NC(=O)[C@H](N)c3ccccc3)[C@H]2SC1 [CEPHALEXIN ANHYDROUS]
Not Active: IC50 [1] | IC50 [2] | IC50 [3] | Ki [3] | IC50 [4] | Ki [4] | IC50 [5] | IC50 [6] | Ki [6] | IC50 (Nitric oxide synthase 1) | IC50 [7] | Ki [7] | IC50 (Cathepsin G)

O=C(N[C@H](CO)[C@H](O)c1ccc([N+](=O)[O-])cc1)C(Cl)Cl [CHLORAMPHENICOL]
Not Active: IC50 [1] | IC50 [2] | IC50 [3] | Ki [3] | IC50 [4] | Ki [4] | IC50 [5] | IC50 [6] | Ki [6] | IC50 (Nitric oxide synthase 1) | IC50 [7] | Ki [7] | IC50 (Cathepsin G)

ClC(Cl)Cl [CHLOROFORM]
Not Active: IC50 [1] | IC50 [2] | IC50 [3] | Ki [3] | IC50 [4] | Ki [4] | IC50 [5] | IC50 [6] | Ki [6] | IC50 (Nitric oxide synthase 1) | IC50 [7] | Ki [7] | IC50 (Cathepsin G)

C=C1CC[C@H](O)C/C1=C/C=C1\CCC[C@]2(C)[C@@H]([C@H](C)CCCC(C)C)CC[C@@H]12 [CHOLECALCIFEROL]
Not Active: IC50 [1] | IC50 [2] | IC50 [3] | Ki [3] | IC50 [4] | Ki [4] | IC50 [5] | IC50 [6] | Ki [6] | IC50 (Nitric oxide synthase 1) | IC50 [7] | Ki [7] | IC50 (Cathepsin G)

C[N+](C)(C)CCO.[Cl-] [CHOLINE CHLORIDE]
Not Active: IC50 [1] | IC50 [2] | IC50 [3] | Ki [3] | IC50 [4] | Ki [4] | IC50 [5] | IC50 [6] | Ki [6] | IC50 (Nitric oxide synthase 1) | IC50 [7] | Ki [7] | IC50 (Cathepsin G)
